According to patent US9980943B2, “Methods of treating muscular dystrophy” (BOARD OF REGENTS OF THE NEVADA SYSTEM OF HIGHER EDUCATION, …, priority 2013, dated 2018):

What was measured:
Format in all cases: cell-based, mouse
[1] = test system: α7 integrin (LacZ reporter in α7βgal+/− myoblasts); assay: Myoblast α7+/LacZ integrin FDG assay (Burkin assay in myoblasts, 96-well); settings: α7+/LacZ myoblasts, 96-well
[2] = test system: α7 integrin (LacZ reporter in α7+/LacZ myotubes); assay: Myotube α7 integrin FDG assay (Burkin assay in myotubes, 96-well); settings: myotubes
[3] = test system: β-galactosidase in CMV-LacZ C2C12 myotubes; assay: CMV-LacZ secondary screen in C2C12 myotubes (β-Gal stabilizing assay); settings: for CMV-LACZ in Myotubes, signal relative to DMSO: C2C12 CMV-LacZ myotubes, fold relative to DMSO; for CMV-LACZ in Myotubes (β-galactosidase activity relative to DMSO): CMV-LacZ C2C12 myotubes, 96-well format
Procedure, shortened: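 β-Gal level was the read-out, measured in a clonal C2C12 line expressing LacZ from a CMV promoter. Dose-response curves used six concentrations, 0.5 μM up to 40 μM, with duplicate points.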

Compound | Burkin Assay in Myoblasts, signal relative to DMSO ([1]; 0.5 uM) | Burkin Assay in Myoblasts, signal relative to DMSO ([1]; 1 uM) | Burkin Assay in Myoblasts, signal relative to DMSO ([1]; 5 uM) | Burkin Assay in Myoblasts, signal relative to DMSO ([1]; 10 uM) | Burkin Assay in Myoblasts, signal relative to DMSO ([1]; 20 uM) | Burkin Assay in Myoblasts, signal relative to DMSO ([1]; 40 uM) | Burkin Assay in Myotubes, α7 integrin LacZ reporter signal relative to DMSO ([2]; 0.5 uM) | Burkin Assay in Myotubes, α7 integrin LacZ reporter signal relative to DMSO ([2]; 1 uM) | Burkin Assay in Myotubes, α7 integrin LacZ reporter signal relative to DMSO ([2]; 5 uM) | Burkin Assay in Myotubes, α7 integrin LacZ reporter signal relative to DMSO ([2]; 10 uM) | Burkin Assay in Myotubes, α7 integrin LacZ reporter signal relative to DMSO ([2]; 20 uM) | Burkin Assay in Myotubes, α7 integrin LacZ reporter signal relative to DMSO ([2]; 40 uM) | CMV-LACZ in Myotubes, signal relative to DMSO ([3]; 5 uM) | CMV-LACZ in Myotubes, signal relative to DMSO ([3]; 10 uM) | CMV-LACZ in Myotubes, signal relative to DMSO ([3]; 20 uM) | CMV-LACZ in Myotubes, signal relative to DMSO ([3]; 40 uM) | further results
CNc1cc([N+](=O)[O-])ccc1OCc1ccccc1 [MLS000737204-01] | 0.9011 | 0.9816 | 0.9164 | 0.9336 | 0.8731 | 0.7472 | 1.043 | 1.173 | 1.0331 | 1.12 | 0.8815 | 0.6682 | 1.029 | 0.8068 | 0.5772 | 0.3807 | –
CCCOc1nc(SCCC)nc2c1cnn2-c1ccccc1 [MLS000737953-01] | 0.9 | 0.9673 | 1.003 | 1.08 | 1.149 | 1.233 | 0.9665 | 1.135 | 1.241 | 1.226 | 1.007 | 0.5339 | 0.8274 | 1.224 | 0.9478 | 0.9096 | –
C[C@H](NS(=O)(=O)c1ccc(Cl)cc1)C(=O)OCC(=O)c1ccc[nH]1 [MLS000761297-01] | – | – | – | – | – | – | – | – | – | – | – | – | – | – | – | – | Burkin Assay in Myoblasts, value relative to DMSO ([1]; 0.5 uM): 1.0693; Burkin Assay in Myoblasts, value relative to DMSO ([1]; 1 uM): 1.071; Burkin Assay in Myoblasts, value relative to DMSO ([1]; 5 uM): 1.121; Burkin Assay in Myoblasts, value relative to DMSO ([1]; 10 uM): 1.055; Burkin Assay in Myoblasts, value relative to DMSO ([1]; 20 uM): 1.072; Burkin Assay in Myoblasts, value relative to DMSO ([1]; 40 uM): 0.9526; Burkin Assay in Myotubes (signal relative to DMSO) ([2]; 0.5 uM): 1.0906; Burkin Assay in Myotubes (signal relative to DMSO) ([2]; 1 uM): 1.022; Burkin Assay in Myotubes (signal relative to DMSO) ([2]; 5 uM): 1.154; Burkin Assay in Myotubes (signal relative to DMSO) ([2]; 10 uM): 1.033; Burkin Assay in Myotubes (signal relative to DMSO) ([2]; 20 uM): 1.045; Burkin Assay in Myotubes (signal relative to DMSO) ([2]; 40 uM): 1.093; CMV-LACZ in Myotubes (β-galactosidase activity relative to DMSO) ([3]; 5 uM): 0.9911; CMV-LACZ in Myotubes (β-galactosidase activity relative to DMSO) ([3]; 10 uM): 0.8106; CMV-LACZ in Myotubes (β-galactosidase activity relative to DMSO) ([3]; 20 uM): 0.993; CMV-LACZ in Myotubes (β-galactosidase activity relative to DMSO) ([3]; 40 uM): 0.8829
